Source: US20220162163A1, “ALANINE-BASED MODULATORS OF PROTEOLYSIS AND ASSOCIATED METHODS OF USE” (Arvinas Operations, Inc., priority 2015, published 2022)

Experiments:
Format in all cases: cell-based
[1] = biological target: T1, JNK2 (Homo sapiens, UniProt P45984); assay: Cellular assay of JNK degradation (A549 cells, Western blot), JNK2; settings: for JNK2 degradation range: PROTAC concentration 1 μM, relative to DMSO control; for DC50: read-out: JNK2 DC50 range
T1 construct: A549 lung adenocarcinoma cells were purchased from ATCC and cultured in RPMI1640 Medium; endogenous in cells; host or cells: A549
T1 sequence (P45984 whole entry): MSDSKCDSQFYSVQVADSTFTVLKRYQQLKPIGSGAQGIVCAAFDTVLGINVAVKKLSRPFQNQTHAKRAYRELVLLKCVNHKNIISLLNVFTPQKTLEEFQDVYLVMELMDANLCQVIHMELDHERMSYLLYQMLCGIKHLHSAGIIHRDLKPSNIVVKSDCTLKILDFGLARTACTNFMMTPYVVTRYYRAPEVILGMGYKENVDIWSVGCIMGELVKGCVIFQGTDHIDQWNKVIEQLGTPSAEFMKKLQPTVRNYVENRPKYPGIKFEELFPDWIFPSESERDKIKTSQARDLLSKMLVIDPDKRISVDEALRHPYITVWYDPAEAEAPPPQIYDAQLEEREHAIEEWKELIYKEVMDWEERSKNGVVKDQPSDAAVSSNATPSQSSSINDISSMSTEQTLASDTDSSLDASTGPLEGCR
Experimental: (§1) Protocol of the cellular assay of JNK degradation (A549 cells, Western blot). A549 lung adenocarcinoma cells were purchased from ATCC and cultured in RPMI1640 Medium (Gibco) supplemented with 10% Fetal Bovine Serum (Gibco). […] Cells were stimulated with PMA (Phorbol 12-myristate 13-acetate, Sigma) for 1 hour before harvesting. Cells were lysed in Cell Signaling lysis buffer supplemented with protease inhibitors (Thermo). The lysates were centrifuged at 20,000×g for 15 minutes to clarify, and protein concentration was determined by BCA (Pierce). Equal amounts of protein (5 micrograms) were separated by SDS-PAGE and transferred onto nitrocellulose membranes. The mermbranes were probed with antibodies against SAPK/JNK (Cell Signaling #9252), phospho-c-Jun (Cell Signaling #3270), MDM2 (Sigma M4308) and p53 (Cell Signaling #2527). HRP-conjugated anti-rabbit and anti-mouse secondary antibodies were from Cell Signaling. The bands were visualized with SuperSignal West Femto Substrate (Thermo). Quantitation was done using Image Lab Software v5.2.1.

[2] = biological target: T2, JNK1 (Homo sapiens, UniProt P45983); assay: Cellular assay of JNK degradation (A549 cells, Western blot), JNK1; settings: for JNK1 degradation range: PROTAC concentration 1 μM, relative to DMSO control; for DC50: read-out: JNK1 DC50 range
T2 construct: A549 lung adenocarcinoma cells were purchased from ATCC and cultured in RPMI1640 Medium; endogenous in cells; host or cells: A549
T2 sequence (P45983 whole entry): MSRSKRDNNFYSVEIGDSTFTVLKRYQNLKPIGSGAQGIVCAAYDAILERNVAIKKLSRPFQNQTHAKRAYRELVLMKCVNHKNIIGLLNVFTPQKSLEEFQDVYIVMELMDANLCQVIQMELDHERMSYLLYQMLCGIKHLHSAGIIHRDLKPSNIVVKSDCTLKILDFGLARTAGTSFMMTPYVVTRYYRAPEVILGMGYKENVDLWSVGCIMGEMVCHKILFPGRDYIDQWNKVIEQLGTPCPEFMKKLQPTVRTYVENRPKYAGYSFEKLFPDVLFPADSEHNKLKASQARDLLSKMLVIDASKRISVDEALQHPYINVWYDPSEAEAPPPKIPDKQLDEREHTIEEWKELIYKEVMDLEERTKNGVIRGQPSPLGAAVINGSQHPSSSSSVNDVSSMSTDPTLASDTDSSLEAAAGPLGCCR
Experimental: as §1

[3] = biological target: T3, Androgen receptor (AR) (Homo sapiens, UniProt P10275); assay: Cellular assay of androgen receptor (AR) degradation (VCaP cells, ELISA); settings: for Dmax at 1 µM: 4 h, read-out: Target protein degradation range; for Dmax at 1 µM / Target protein degradation range: androgen receptor, VCaP cells, PROTAC concentration 1 μM, relative to DMSO control; for Androgen receptor (AR) degradation in VCaP cells: @ 1 μM
T3 construct: endogenous in cells; host or cells: VCaP
T3 sequence (P10275 1-920): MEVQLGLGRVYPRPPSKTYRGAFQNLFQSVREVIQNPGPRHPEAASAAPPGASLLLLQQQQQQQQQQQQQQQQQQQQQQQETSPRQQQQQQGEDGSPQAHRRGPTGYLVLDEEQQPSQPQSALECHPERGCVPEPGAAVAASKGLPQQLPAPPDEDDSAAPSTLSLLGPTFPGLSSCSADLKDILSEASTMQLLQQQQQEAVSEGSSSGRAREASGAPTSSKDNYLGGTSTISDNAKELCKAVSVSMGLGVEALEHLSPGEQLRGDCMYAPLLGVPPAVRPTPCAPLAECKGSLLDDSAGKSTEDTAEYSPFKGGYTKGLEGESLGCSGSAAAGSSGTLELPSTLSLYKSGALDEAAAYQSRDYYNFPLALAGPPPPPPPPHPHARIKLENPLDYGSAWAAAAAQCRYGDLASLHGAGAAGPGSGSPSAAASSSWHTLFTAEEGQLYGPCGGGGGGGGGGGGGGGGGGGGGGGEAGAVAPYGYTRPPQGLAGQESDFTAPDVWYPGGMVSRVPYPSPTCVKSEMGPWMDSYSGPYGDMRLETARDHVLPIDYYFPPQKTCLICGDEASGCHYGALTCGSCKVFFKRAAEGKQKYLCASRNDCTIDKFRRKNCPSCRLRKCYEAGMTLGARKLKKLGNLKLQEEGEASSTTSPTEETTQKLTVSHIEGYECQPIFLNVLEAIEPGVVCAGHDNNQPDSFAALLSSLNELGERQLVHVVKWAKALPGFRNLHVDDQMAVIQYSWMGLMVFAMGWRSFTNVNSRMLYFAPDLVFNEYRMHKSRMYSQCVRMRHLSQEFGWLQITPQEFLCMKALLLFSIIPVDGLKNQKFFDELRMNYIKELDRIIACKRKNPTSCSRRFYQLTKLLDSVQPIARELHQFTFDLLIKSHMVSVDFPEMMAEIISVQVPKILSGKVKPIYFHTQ
Experimental: Protocol of the Cellular Assay of Androgen Receptor (AR) Degradation (VCaP Cells, ELISA).
For detection Cell Signaling PathScan Sandwich Elisa Catalog #12850 Lot 11 was used. VCaP cells were cultured in ATCC DMEM+ATCC FBS and plated 40,000/well 100 μl/well in RPMI P/S with 5% CSS Omega (bovine) serum into a 96 well plate. The cells were grown for a minimum of 3 days, dosed with compounds in 0.1% DMSO (diluted with 5% CSS) and incubated with aspiration for 4 hours. 100 μl of 1× Cell Signaling lysis buffer #9803 (36 ml dH2O+4 ml Cell Signaling lysis buffer) was added. The incubation was placed on cold room shaker for 10 min at speed 8-9. 5 μl to 100 μl of Diluent was transferred to Elisa plate (0.15 ug/ml-0.075 ug/ml) and stored at 4 C overnight on cold room shaker speed 5 (gentle swirl) and then shaken next morning at 37° C. for 30 min. The preparation was washed 4×200 μl with Elisa wash buffer and aspirated with eight-channel aspirator. 100 μl/well of AR detection Ab was added after which the preparation was covered and shaken at 37° C. for 1 hr. 100 ul TMB was added, and the mixture was shaken for 5 min while under observation. When TMB turned light blue, 100 ul of Stop solution was added, and the mixture was shaken and read at 450 nm. Also read at 562 for background subtraction.

| Molecule | JNK2 degradation range [1] | JNK1 degradation range [2] | DC50 [2] [nM] | Dmax at 1 µM [3] [%] | other results |
| --- | --- | --- | --- | --- | --- |
| CN[C@@H](C)C(=O)N[C@H](C(=O)N1CCC[C@H]1c1nc(-c2ccc(OCCOCCOCCOCCOCCO[C@H]3CC[C@H](Nc4nccc(-c5cnn(Cc6ccccc6)c5N(C)C)n4)CC3)c3ccccc23)cs1)C1CCCCC1 [Example 12, (2S)—N-[(1S)-1-cyclohexyl-2-oxo-2-[(2S)-2-[4-[4-([1-[(1r,4r)-4-([4-[1-benzyl-5-(dimethylamino)-1H-pyrazol-4-yl]pyrimidin-2-yl]amino)cyclohexyl]-1,4,7,10,13-pentaoxapentadecan-15-yl]oxy)naphthalen-1-yl]-1,3-thiazol-2-yl]pyrrolidin-1-yl]ethyl]-2-(methylamino)propanamide] | B (degradation between 30% and 60%) | A (degradation more than 60%) | 1 to 100 | – | – |
| CN[C@@H](C)C(=O)N[C@H](C(=O)N1CC[C@@H]2CCN(CCc3ccc(OCCOCCOCCOCCOC4CCC(Nc5nccc(-c6cnn(Cc7ccccc7)c6N(C)C)n5)CC4)cc3)C[C@@H]21)C1CCCCC1 (mixture of isomers) [Example 19, (2S)—N-[(1S)-1-cyclohexyl-2-oxo-2-(6-[2-[4-([1-[(1r,4r)-4-([4-[1-benzyl-5-(dimethylamino)-1H-pyrazol-4-yl]pyrimidin-2-yl]amino)cyclohexyl]-1,4,7,10-tetraoxadodecan-12-yl]oxy)phenyl]ethyl]-octahydro-1H-pyrrolo[2,3-c]pyridin-1-yl)ethyl]-2-(methylamino)propanamide] | A (degradation more than 60%) | A (degradation more than 60%) | 1 to 100 | – | DC50 [1]: 100 to 1000 nM |
| CN[C@@H](C)C(=O)N[C@H](C(=O)N1CCC[C@H]1c1nc(-c2ccc(OCCOCCO[C@H]3CC[C@H](Nc4nccc(-c5cnn(Cc6ccccc6)c5N(C)C)n4)CC3)c3ccccc23)cs1)C1CCCCC1 [Example 13, (2S)—N-[(1S)-1-cyclohexyl-2-oxo-2-[(2S)-2-(4-[4-[2-(2-[[(1r,4r)-4-([4-[1-benzyl-5-(dimethylamino)-1H-pyrazol-4-yl]pyrimidin-2-yl]amino)cyclohexyl]oxy]ethoxy)ethoxy]naphthalen-1-yl]-1,3-thiazol-2-yl)pyrrolidin-1-yl]ethyl]-2-(methylamino)propanamide] | A (degradation more than 60%) | A (degradation more than 60%) | 1 to 100 | – | DC50 [1]: 100 to 1000 nM |
| CN[C@@H](C)C(=O)N[C@H](C(=O)N1CCC[C@H]1C(=O)N[C@H]1c2ccccc2C[C@H]1OCCOCCOCCOCCOCCOc1ccc(C(=O)NC2C(C)(C)C(Oc3ccc(C#N)c(Cl)c3)C2(C)C)cc1)C(C)(C)C (stereo partly drawn) [Example 1, 1-[3,3-dimethyl-(2S)-2-[(2S)-2-(methylamino)propanamido]butanoyl]-N-[(1S,2R)-2-[[1-(4-[[(1r,3r)-3-(3-chloro-4-cyanophenoxy)-2,2,4,4-tetramethylcyclobutyl]carbamoyl]phenyl)-1,4,7,10,13-pentaoxapentadecan-15-yl]oxy]-2,3-dihydro-1H-inden-1-yl]pyrrolidine-2-carboxamide] | – | – | – | 30 to 60 | – |
| CN[C@@H](C)C(=O)N[C@H](C(=O)N1CCC[C@H]1C(=O)N[C@H]1c2ccccc2C[C@H]1OCCOCCOCCOc1ccc(C(=O)N[C@H]2C(C)(C)[C@H](Oc3ccc(C#N)c(Cl)c3)C2(C)C)cc1)C(C)(C)C [(2S)-1-[(2S)-3,3-dimethyl-2-[(2S)-2-(methylamino)propanamido]butanoyl]-N-[(1S,2R)-2-(2-{2-[2-(4-{[(1r,3r)-3-(3-chloro-4-cyanophenoxy)-2,2,4,4-tetramethylcyclobutyl]carbamoyl}phenoxy)ethoxy]ethoxy}ethoxy)-2,3-dihydro-1H-inden-1-yl]pyrrolidine-2-carboxamide] | – | – | – | – | Androgen receptor (AR) degradation in VCaP cells [3]: 18% |
| CN[C@@H](C)C(=O)N[C@H](C(=O)N1CCC[C@H]1c1nc(-c2ccc(OCCOCCNc3ccc(C(=O)NC4C(C)(C)C(Oc5ccc(C#N)c(Cl)c5)C4(C)C)cc3)c3ccccc23)cs1)C1CCCCC1 (stereo partly drawn) [Example 29, 4-[(2-[2-[(4-[2-[(2S)-1-[(2S)-2-cyclohexyl-2-[(2S)-2-(methylamino)propanamido]acetyl]pyrrolidin-2-yl]-1,3-thiazol-4-yl]naphthalen-1-yl)oxy]ethoxy]ethyl)amino]-N-[(1r,3r)-3-(3-chloro-4-cyanophenoxy)-2,2,4,4-tetramethylcyclobutyl]benzamide] | – | – | – | 0 to 30 | – |
| CN[C@@H](C)C(=O)N[C@H](C(=O)N1CCC[C@H]1C(=O)N[C@H]1c2ccccc2C[C@H]1OCCOCCOCCOCCOCCOc1ccc(C(=O)N[C@H]2C(C)(C)[C@H](Oc3ccc(C#N)c(Cl)c3)C2(C)C)cc1)C(C)(C)C [(2S)-1-[(2S)-3,3-dimethyl-2-[(2S)-2-(methylamino)propanamido]butanoyl]-N-[(1S,2R)-2-{[1-(4-1{[(1r,3r)-3-(3-chloro-4-cyanophenoxy)-2,2,4,4-tetramethylcyclobutyl]carbamoyl}phenyl)-1,4,7,10,13-pentaoxapentadecan-15-yl]oxy}-2,3-dihydro-1H-inden-1-yl]pyrrolidine-2-carboxamide] | – | – | – | – | Androgen receptor (AR) degradation in VCaP cells [3]: 38% |
| 1-[(2S)-3,3-dimethyl-2-[(2S)-2-(methylamino)propanamido]butanoyl]-N-[(1S,2R)-2-[[1-(4-[[(1r,3r)-3-(3-chloro-4-cyanophenoxy)-2,2,4,4-tetramethylcyclobutyl]carbamoyl]phenyl)-1,4,7,10-tetraoxadodecan-12-yl]oxy]-2,3-dihydro-1H-inden-1-yl]pyrrolidine-2-carboxamide [Example 3] | – | – | – | – | Target protein degradation range [3]: B (degradation between 30% and 60%) |
| CN[C@@H](C)C(=O)N[C@H](C(=O)N1CCCC1C(=O)N[C@H]1c2ccccc2C[C@H]1OCCOCCOCCOc1ccc(C(=O)NC2C(C)(C)C(Oc3ccc(C#N)c(Cl)c3)C2(C)C)cc1)C(C)(C)C (stereo partly drawn) [Example 2, 1-[(2S)-3,3-dimethyl-2-[(2S)-2-(methylamino)propanamido]butanoyl]-N-[(1S,2R)-2-(2-[2-[2-(4-[[(1r,3r)-3-(3-chloro-4-cyanophenoxy)-2,2,4,4-tetramethylcyclobutyl]carbamoyl]phenoxy)ethoxy]ethoxy]ethoxy)-2,3-dihydro-1H-inden-1-yl]pyrrolidine-2-carboxamide] | – | – | – | – | Target protein degradation range [3]: C (degradation between 0% and 30%) |
| CN[C@@H](C)C(=O)N[C@H](C(=O)N1CC[C@@H]2CCN(CCc3ccc(OCCOCCOCCOCCNc4ccc(C(=O)N[C@H]5C(C)(C)[C@H](Oc6ccc(C#N)c(Cl)c6)C5(C)C)cc4)cc3)C[C@@H]21)C1CCCCC1 (racemic) [Example 33, N-((1r,3r)-3-(3-chloro-4-cyanophenoxy)-2,2,4,4-tetramethylcyclobutyl)-4-(2-(2-(2-(2-(4-(2-(1-((S)-2-cyclohexyl-2-((S)-2-(methylamino)propanamido)acetyl)-octahydropyrrolo[2,3-c]pyridin-6-yl)ethyl)phenoxy)ethoxy)ethoxy)ethoxy)ethylamino)benzamide] | – | – | – | 30 to 60 | – |
